Assays:
Format in all cases: functional
Arenaria serpyllifolia [1] = test: Herbicidal activity against Arenaria serpyllifolia in cucumber plants fields exposed to 90 L/ha compound fumigation treatment assessed as hand weeding time per plot (reference value: 258.3 hr/ha)
Meloidogyne incognita [2] = test: Nematicidal activity against Meloidogyne incognita (root-knot nematode) in tomato growing fields exposed to 180 L/ha compound fumigation treatment assessed as root galling index measured 20 days after compound treatment (reference value: 8.51 root galling index)
Solanum lycopersicum [3] = test: Increase in crop yield in Cucumis sativus (cucumber) plants exposed to 180 L/ha compound fumigation treatment assessed as extra-large fruit yield (reference value: 7.2 ton/ha)
Arenaria serpyllifolia [4] = test: Herbicidal activity against Arenaria serpyllifolia in cucumber plants fields exposed to 180 L/ha compound fumigation treatment assessed as hand weeding time per plot (reference value: 258.3 hr/ha)
Meloidogyne incognita [5] = test: Nematicidal activity against Meloidogyne incognita (root-knot nematode) in tomato growing fields exposed to 120 L/ha compound fumigation treatment assessed as root galling index measured 20 days after compound treatment (reference value: 8.51 root galling index)
Solanum lycopersicum [6] = test: Increase in crop yield in Solanum lycopersicum (tomato) plants exposed to 180 L/ha compound fumigation treatment assessed as extra-large fruit yield (reference value: 3.8 ton/ha)
Arenaria serpyllifolia [7] = test: Herbicidal activity against Arenaria serpyllifolia in cucumber plants fields exposed to 120 L/ha compound fumigation treatment assessed as hand weeding time per plot (reference value: 258.3 hr/ha)
Solanum lycopersicum [8] = test: Increase in crop yield in Solanum lycopersicum (tomato) plants exposed to 90 L/ha compound fumigation treatment assessed as medium fruit yield (reference value: 32.3 ton/ha)
Capsella bursa-pastoris [9] = test: Herbicidal activity against Capsella bursa-pastoris in cucumber plants fields exposed to 90 L/ha compound fumigation treatment assessed as hand weeding time per plot relative to untreated control
Arenaria serpyllifolia [10] = test: Herbicidal activity against Arenaria serpyllifolia in tomato plants fields exposed to 90 L/ha compound fumigation treatment assessed as hand weeding time per plot (reference value: 243.3 hr/ha)
Digitaria sanguinalis [11] = test: Herbicidal activity against Digitaria sanguinalis (hairy crabgrass) in tomato plants fields exposed to 180 L/ha compound fumigation treatment assessed as hand weeding time per plot relative to untreated control
Solanum lycopersicum [12] = test: Increase in crop yield in Solanum lycopersicum (tomato) plants exposed to 90 L/ha compound fumigation treatment assessed as large fruit yield (reference value: 15.2 ton/ha)
Solanum lycopersicum [13] = test: Increase in crop yield in Cucumis sativus (cucumber) plants exposed to 90 L/ha compound fumigation treatment assessed as large fruit yield (reference value: 19.5 ton/ha)
Cucumis sativus [14] = test: Increase in plant height of Cucumis sativus (cucumber) exposed to 180 L/ha compound fumigation treatment measured 50 days after compound treatment (reference value: 103.2 cm)
Capsella bursa-pastoris [15] = test: Herbicidal activity against Capsella bursa-pastoris in tomato plants fields exposed to 90 L/ha compound fumigation treatment assessed as hand weeding time per plot relative to untreated control
Cucumis sativus [16] = test: Increase in plant height of Cucumis sativus (cucumber) exposed to 90 L/ha compound fumigation treatment measured 50 days after compound treatment (reference value: 103.2 cm)
Solanum lycopersicum [17] = test: Increase in crop yield in Cucumis sativus (cucumber) plants exposed to 120 L/ha compound fumigation treatment assessed as extra-large fruit yield (reference value: 7.2 ton/ha)
Cucumis sativus [18] = test: Increase in plant height of Cucumis sativus (cucumber) exposed to 120 L/ha compound fumigation treatment measured 50 days after compound treatment (reference value: 103.2 cm)
Capsella bursa-pastoris [19] = test: Herbicidal activity against Capsella bursa-pastoris in tomato plants fields exposed to 180 L/ha compound fumigation treatment assessed as hand weeding time per plot relative to untreated control
Meloidogyne incognita [20] = test: Nematicidal activity against Meloidogyne incognita (root-knot nematode) in cucumber growing fields exposed to 90 L/ha compound fumigation treatment assessed as root galling index measured 20 days after compound treatment (reference value: 8.72 root galling index)
Digitaria sanguinalis [21] = test: Herbicidal activity against Digitaria sanguinalis (hairy crabgrass) in tomato plants fields exposed to 120 L/ha compound fumigation treatment assessed as hand weeding time per plot relative to untreated control
Solanum lycopersicum [22] = test: Increase in crop yield in Cucumis sativus (cucumber) plants exposed to 120 L/ha compound fumigation treatment assessed as marketable yield fruit yield (reference value: 65.3 ton/ha)
Solanum lycopersicum [23] = test: Increase in crop yield in Solanum lycopersicum (tomato) plants exposed to 120 L/ha compound fumigation treatment assessed as extra-large fruit yield (reference value: 3.8 ton/ha)
Cucumis sativus [24] = test: Increase in plant height of Cucumis sativus (cucumber) exposed to 90 L/ha compound fumigation treatment measured 30 days after compound treatment (reference value: 85.6 cm)
Digitaria sanguinalis [25] = test: Herbicidal activity against Digitaria sanguinalis (hairy crabgrass) in cucumber plants fields exposed to 90 L/ha compound fumigation treatment assessed as hand weeding time per plot (reference value: 258.3 hr/ha)
Solanum lycopersicum [26] = test: Increase in crop yield in Solanum lycopersicum (tomato) plants exposed to 120 L/ha compound fumigation treatment assessed as marketable yield fruit yield (reference value: 51.3 ton/ha)
Solanum lycopersicum [27] = test: Increase in crop yield in Solanum lycopersicum (tomato) plants exposed to 120 L/ha compound fumigation treatment assessed as large fruit yield (reference value: 15.2 ton/ha)
Solanum lycopersicum [28] = test: Increase in plant height of Solanum lycopersicum (tomato) exposed to 90 L/ha compound fumigation treatment measured 50 days after compound treatment (reference value: 86.2 cm)
Solanum lycopersicum [29] = test: Increase in plant height of Solanum lycopersicum (tomato) exposed to 90 L/ha compound fumigation treatment measured 30 days after compound treatment (reference value: 28.4 cm)
Solanum lycopersicum [30] = test: Increase in crop yield in Solanum lycopersicum (tomato) plants exposed to 180 L/ha compound fumigation treatment assessed as marketable yield fruit yield (reference value: 51.3 ton/ha)
Arenaria serpyllifolia [31] = test: Herbicidal activity against Arenaria serpyllifolia in tomato plants fields exposed to 90 L/ha compound fumigation treatment assessed as hand weeding time per plot relative to untreated control
Digitaria sanguinalis [32] = test: Herbicidal activity against Digitaria sanguinalis (hairy crabgrass) in tomato plants fields exposed to 90 L/ha compound fumigation treatment assessed as hand weeding time per plot relative to untreated control
Arenaria serpyllifolia [33] = test: Herbicidal activity against Arenaria serpyllifolia in cucumber plants fields exposed to 120 L/ha compound fumigation treatment assessed as hand weeding time per plot relative to untreated control
Capsella bursa-pastoris [34] = test: Herbicidal activity against Capsella bursa-pastoris in cucumber plants fields exposed to 180 L/ha compound fumigation treatment assessed as hand weeding time per plot (reference value: 258.3 hr/ha)
Solanum lycopersicum [35] = test: Increase in crop yield in Solanum lycopersicum (tomato) plants exposed to 180 L/ha compound fumigation treatment assessed as medium fruit yield (reference value: 32.3 ton/ha)
Solanum lycopersicum [36] = test: Increase in crop yield in Cucumis sativus (cucumber) plants exposed to 90 L/ha compound fumigation treatment assessed as marketable yield fruit yield (reference value: 65.3 ton/ha)
Solanum lycopersicum [37] = test: Increase in crop yield in Cucumis sativus (cucumber) plants exposed to 90 L/ha compound fumigation treatment assessed as medium fruit yield (reference value: 38.6 ton/ha)

SMILES: Cl/C=C/CCl [1,3-DICHLOROPROPENE]
- Time (Arenaria serpyllifolia [1]): 90.5 hr/ha
- Root_galling_index (Meloidogyne incognita [2]): 2.34
- Crop_yield (Solanum lycopersicum [3]): 14.8 tons/ha
- Time (Arenaria serpyllifolia [4]): 62.3 hr/ha
- Root_galling_index (Meloidogyne incognita [5]): 2.84
- Crop_yield (Solanum lycopersicum [6]): 8.4 tons/ha
- Time (Arenaria serpyllifolia [7]): 74.4 hr/ha
- Crop_yield (Solanum lycopersicum [8]): 38.7 tons/ha
- Activity (Capsella bursa-pastoris [9]): 45%
- Time (Arenaria serpyllifolia [10]): 85.6 hr/ha
- Activity (Digitaria sanguinalis [11]): 45%
- Crop_yield (Solanum lycopersicum [12]): 18.9 tons/ha
- Crop_yield (Solanum lycopersicum [13]): 24.8 tons/ha
- Activity (Cucumis sativus [14]): 130.7 cm
- Activity (Capsella bursa-pastoris [15]): 45%
- Activity (Cucumis sativus [16]): 112.3 cm
- Crop_yield (Solanum lycopersicum [17]): 12.1 tons/ha
- Activity (Cucumis sativus [18]): 120.5 cm
- Activity (Capsella bursa-pastoris [19]): 45%
- Root_galling_index (Meloidogyne incognita [20]): 4.28
- Activity (Digitaria sanguinalis [21]): 45%
- Crop_yield (Solanum lycopersicum [22]): 89.1 tons/ha
- Crop_yield (Solanum lycopersicum [23]): 6.4 tons/ha
- Activity (Cucumis sativus [24]): 92.6 cm
- Time (Digitaria sanguinalis [25]): 90.5 hr/ha
- Crop_yield (Solanum lycopersicum [26]): 68.1 tons/ha
- Crop_yield (Solanum lycopersicum [27]): 19.2 tons/ha
- Activity (Solanum lycopersicum [28]): 98.3 cm
- Activity (Solanum lycopersicum [29]): 32.4 cm
- Crop_yield (Solanum lycopersicum [30]): 76.3 tons/ha
- Activity (Arenaria serpyllifolia [31]): 45%
- Activity (Digitaria sanguinalis [32]): 45%
- Activity (Arenaria serpyllifolia [33]): 45%
- Time (Capsella bursa-pastoris [34]): 62.3 hr/ha
- Crop_yield (Solanum lycopersicum [35]): 45.3 tons/ha
- Crop_yield (Solanum lycopersicum [36]): 84 tons/ha
- Crop_yield (Solanum lycopersicum [37]): 47.7 tons/ha
